What was measured:
[1] = LC retention time (Atlantis T3, 5-95% MeOH gradient, 0.1% formic acid); higher = more retained / less polar
In short: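 Retention times were recorded for reference standards (purity ≥ 95%) on a polar reversed-phase C18 column (Atlantis T3, 3 × 150 mm, 3 μm) at 0.3 mL/min. Elution used water and methanol, each with 0.1% formic acid, in a gradient from 5 to 95% methanol over 17.5 min. Detection was by high-resolution tandem mass spectrometry on a QExactive Plus, with positive and negative electrospray in separate runs. Peaks were found and integrated in TraceFinder (5 ppm tolerance, at least three points per peak) and then checked by hand.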

[2] = absolute recovery over mixed-bed multilayer solid-phase extraction; higher = better recovery; settings: enrichment method: SPE
In short: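 Absolute recovery rests on background-corrected response ratios of pre- versus post-spiked samples, averaged over at least two replicates. Wastewater (100–250 mL, pH 6.5, glass-fibre filtered) was spiked at 1000 ng/L and unfiltered nanopure water (1000 mL) at 200 ng/L, before or after three-layer mixed-bed cartridge extraction or not at all, with exceptions for some classes. Analysis after internal standard addition used liquid chromatography with high-resolution tandem mass spectrometry in both ionisation modes.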

[3] = absolute recovery over vacuum-assisted evaporative concentration; higher = better recovery; settings: enrichment method: VEC
In short: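 After spiking with standards before concentration, after concentration or not at all, at 1000 ng/L for wastewater or 200 ng/L for nanopure and surface water with class- and compound-specific adjustments, samples of 6 mL influent, 15 mL effluent and 60 mL surface or nanopure water were evaporated at 55 °C and 20 mbar to about 0.3 mL. They were brought to 0.4 mL, centrifuged, given internal standards and analysed by LC-HRMS/MS. Absolute recovery, (response ratio pre − unspiked)/(post − unspiked) × 100, used averages of ≥ 2 replicates.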

Row | LC retention time [1] | absolute recovery ([2]; nanopure water) | absolute recovery ([2]; surface water) | absolute recovery ([2]; wastewater effluent) | absolute recovery ([2]; wastewater influent) | absolute recovery ([3]; wastewater effluent) | absolute recovery ([3]; wastewater influent) | Compound
1 | 15.3 min | 95.2% | 97.5% | 94.2% | 96% | 97.7% | 93.4% | NC(=O)N1c2ccccc2C(O)C(O)c2ccccc21 (stereo unspecified) [Carbamazepin-10-11-dihydro-10-11-dihydroxy]
2 | 14 min | 89.4% | 93.1% | 88.8% | 103% | 83.9% | 82.1% | Cn1nnc2ccccc21 [1-Methyl-Benzotriazol]
3 | 19.9 min | 95.5% | 102% | 102% | 84.4% | 104% | 109% | COCCN(C(=O)CS(=O)(=O)[O-])c1c(C)cccc1C [Dimethachlor-ESA]
4 | 16.2 min | 92.8% | 75.1% | 89.1% |  | 90.1% | 136% | CC[NH+](CC)CC#CCOC(=O)C(O)(c1ccccc1)C1CCCCC1 (stereo unspecified) [Oxybutynin]
5 | 14.5 min | 90.1% |  | 95.7% | 68.4% | 104% | 108% | C[NH+]1CCN2c3ccccc3Cc3ccccc3C2C1 (stereo unspecified) [Mianserin]
6 | 17.3 min | 81% | 78.3% | 76.4% | 87.1% | 96.6% | 58.2% | CC12C=CC(=O)C=C1CCC1C2C(=O)CC2(C)C1CCC2(O)C(=O)CO (stereo unspecified) [Prednisone]
7 | 10.2 min | 96.7% | 98.2% | 89.1% | 91.7% | 104% | 100% | NS(=O)(=O)c1cc2c(cc1Cl)NCNS2(=O)=O [Hydrochlorothiazid]
8 | 7.78 min | 59.6% | 64.5% | 70% | 53% | 107% | 103% | CC(O)C(=O)Nc1c(I)c(C(=O)NC(CO)CO)c(I)c(C(=O)NC(CO)CO)c1I (stereo unspecified) [Iopamidol]
9 | 12.8 min | 80.1% | 89.2% | 91.8% | 103% | 85.7% | 89.8% | COc1ccc2c(c1OC)C(=O)OC2C1c2c(cc3c(c2OC)OCO3)CC[NH+]1C (stereo unspecified) [Noscapin]
10 | 17.1 min | 108% | 82.5% | 88.5% | 126% | 86.1% | 82.1% | CCCc1nc2c(C)cc(-c3nc4ccccc4n3C)cc2n1Cc1ccc(-c2ccccc2C(=O)[O-])cc1 [Telmisartan]
11 | 21.4 min | 89.4% | 84% | 96.3% | 96.4% | 112% | 109% | CC(C)N(C(=O)CS(=O)(=O)[O-])c1ccc(F)cc1 [Flufenacet-ESA]
12 | 19 min | 87.8% | 71.9% | 71.8% | 89.1% | 111% | 55.6% | CC12CCC(=O)C=C1CCC1C2C(O)CC2(C)C(C(=O)CO)CCC12 (stereo unspecified) [Corticosteron]
13 | 18.4 min | 86.9% | 89.1% | 83.2% | 96.5% | 93.2% | 86.2% | CCN(CC)C(=O)c1cccc(C)c1 [N-N-diethyl-3-methylbenzamid (=DEET)]
14 | 8.45 min | 80.1% | 80.6% | 77.1% | 93.3% | 101% | 101% | CC[NH+]1CCCC1CNC(=O)c1cc(S(N)(=O)=O)ccc1OC (stereo unspecified) [Sulpirid]

Further lines, the molecule ahead of its results:

Row | Compound | LC retention time [1] | absolute recovery ([2]; nanopure water) | absolute recovery ([2]; surface water) | absolute recovery ([2]; wastewater effluent) | absolute recovery ([2]; wastewater influent) | absolute recovery ([3]; wastewater effluent) | absolute recovery ([3]; wastewater influent)
15 | COc1cccc(C(=O)NN(C(=O)c2cc(C)cc(C)c2)C(C)(C)C)c1C [Methoxyfenozid] | 19.7 min | 104% | 103% | 98.1% | 94.8% | 104% | 98.9%
16 | CCC(=[NH+]OCC=CCl)C1=C([O-])CC(C2CCOCC2)CC1=O (stereo unspecified) [Tepraloxydim] | 19 min | 98.7% | 90.1% | 92.9% |  | 114% | 102%
17 | Fc1ccc(Oc2ccnc3cc(Cl)cc(Cl)c23)cc1 [Quinoxyfen] | 22.9 min | 63.7% | 76.4% | 78.1% | 53.1% | 69.8% | 
18 | CC1COC(=O)c2cc3c(cc21)C(C)(C)C(C)C3(C)C (stereo unspecified) [Galaxolidon] | 22.2 min | 103% | 104% | 86.1% | 108% | 61.8% | 63.2%
19 | COc1ccc(NC(=O)N(C)C)cc1Cl [Metoxuron] | 16 min | 104% | 92.8% | 90.2% | 129% | 104% | 98.1%
20 | CC([NH3+])C12CC3CC(CC(C3)C1)C2 (stereo unspecified) [Rimantadin] | 14.6 min | 71.9% | 76.1% | 72.9% | 71.4% | 105% | 112%
21 | CCOP(=S)(OCC)Oc1cc(C)nc(C(C)C)n1 [Diazinon] | 21.1 min | 77.6% | 86.9% | 80.5% | 82.8% | 27.1% | 18.9%
22 | COCCN(C(=O)CCl)c1c(C)cccc1C [Dimethachlor] | 18.8 min | 93% | 89.9% | 89.6% | 95.7% | 94.3% | 97.7%
23 | NC1=[NH+]CCN1Cc1ccc(Cl)nc1 [Imidacloprid-desnitro] | 8.99 min | 113% | 110% | 104% | 106% | 107% | 103%
24 | Cc1cc(C)nc(Nc2ccccc2)n1 [Pyrimethanil] | 18.3 min | 89.2% | 91.1% | 91.4% | 90.3% | 88.8% | 86.4%
25 | CC(=O)N(CC(O)CO)c1c(I)c(C(=O)NCC(O)CO)c(I)c(C(=O)NCC(O)CO)c1I (stereo unspecified) [Iohexol] | 8.81 min | 68.2% | 73.1% | 66.4% | 56.8% | 102% | 98.3%

From the supplement of paper PMC6470124
